Assay results from US20250312462A1, “PAK1 DEGRADERS AND METHODS OF USE THEREOF” (INSTITUTE FOR CANCER RESEARCH D/B/A THE RESEARCH INSTITUTE …, priority 2022, published 2025).

Legend:
Assay in all cases: KINOMEscan
Conditions in all cases: read-out: Percent Control
[1] = biological target: RSK2(Kin.Dom.1-N-terminal) (Homo sapiens, UniProt P51812)
Method: (§1) The kinase engagement assay (KINOMEscan®) was performed by DiscoverX assessing binding abilities toward a set of kinases.

[2] = biological target: AURKB (Homo sapiens, UniProt Q96GD4)
Method: as §1

[3] = biological target: ABL1(M351T)-phosphorylated (Homo sapiens, UniProt P00519, M351T)
Method: as §1

[4] = biological target: AKT3 (Homo sapiens, UniProt Q9Y243)
Chain of AKT3 (Q9Y243 whole entry): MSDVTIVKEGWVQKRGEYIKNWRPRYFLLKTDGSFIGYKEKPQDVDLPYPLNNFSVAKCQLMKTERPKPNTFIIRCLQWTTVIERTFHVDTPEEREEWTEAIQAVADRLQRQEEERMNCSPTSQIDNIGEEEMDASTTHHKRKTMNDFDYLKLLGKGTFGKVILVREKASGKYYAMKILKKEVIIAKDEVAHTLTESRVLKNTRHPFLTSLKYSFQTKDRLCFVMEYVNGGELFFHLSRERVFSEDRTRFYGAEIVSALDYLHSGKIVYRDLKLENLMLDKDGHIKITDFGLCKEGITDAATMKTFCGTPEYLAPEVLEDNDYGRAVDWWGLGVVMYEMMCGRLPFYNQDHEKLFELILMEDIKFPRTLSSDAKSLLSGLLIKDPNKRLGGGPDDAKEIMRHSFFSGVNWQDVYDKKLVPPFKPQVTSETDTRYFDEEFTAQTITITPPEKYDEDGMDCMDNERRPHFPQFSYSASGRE
Method: as §1

[5] = biological target: MELK (Homo sapiens, UniProt Q14680)
Method: as §1

[6] = biological target: FLT1 (Homo sapiens, UniProt P17948)
Method: as §1

[7] = biological target: MAP3K2 (Homo sapiens, UniProt Q9Y2U5)
Method: as §1

[8] = biological target: TSSK1B (Homo sapiens, UniProt Q9BXA7)
Method: as §1

[9] = biological target: PKAC-alpha (Homo sapiens, UniProt P17612)
Method: as §1

[10] = biological target: CSK (Homo sapiens, UniProt P41240)
Method: as §1

[11] = biological target: AKT1 (Homo sapiens, UniProt P31749)
Method: as §1

[12] = biological target: FLT3-autoinhibited (Homo sapiens, UniProt P36888)
Method: as §1

[13] = biological target: CASK (Homo sapiens, UniProt O14936)
Method: as §1

[14] = biological target: SGK2 (Homo sapiens, UniProt Q9HBY8)
Method: as §1

[15] = biological target: KIT(D816V) (Homo sapiens, UniProt P10721, D816V)
Method: as §1

[16] = biological target: GRK1 (Homo sapiens, UniProt Q15835)
Method: as §1

[17] = biological target: CAMK1B (Homo sapiens, UniProt Q6P2M8)
Method: as §1

[18] = biological target: DRAK1 (Homo sapiens, UniProt Q9UEE5)
Method: as §1

[19] = biological target: PIK4CB (Homo sapiens, UniProt Q9UBF8)
Method: as §1

[20] = biological target: NEK4 (Homo sapiens, UniProt P51957)
Chain of NEK4 (P51957 whole entry): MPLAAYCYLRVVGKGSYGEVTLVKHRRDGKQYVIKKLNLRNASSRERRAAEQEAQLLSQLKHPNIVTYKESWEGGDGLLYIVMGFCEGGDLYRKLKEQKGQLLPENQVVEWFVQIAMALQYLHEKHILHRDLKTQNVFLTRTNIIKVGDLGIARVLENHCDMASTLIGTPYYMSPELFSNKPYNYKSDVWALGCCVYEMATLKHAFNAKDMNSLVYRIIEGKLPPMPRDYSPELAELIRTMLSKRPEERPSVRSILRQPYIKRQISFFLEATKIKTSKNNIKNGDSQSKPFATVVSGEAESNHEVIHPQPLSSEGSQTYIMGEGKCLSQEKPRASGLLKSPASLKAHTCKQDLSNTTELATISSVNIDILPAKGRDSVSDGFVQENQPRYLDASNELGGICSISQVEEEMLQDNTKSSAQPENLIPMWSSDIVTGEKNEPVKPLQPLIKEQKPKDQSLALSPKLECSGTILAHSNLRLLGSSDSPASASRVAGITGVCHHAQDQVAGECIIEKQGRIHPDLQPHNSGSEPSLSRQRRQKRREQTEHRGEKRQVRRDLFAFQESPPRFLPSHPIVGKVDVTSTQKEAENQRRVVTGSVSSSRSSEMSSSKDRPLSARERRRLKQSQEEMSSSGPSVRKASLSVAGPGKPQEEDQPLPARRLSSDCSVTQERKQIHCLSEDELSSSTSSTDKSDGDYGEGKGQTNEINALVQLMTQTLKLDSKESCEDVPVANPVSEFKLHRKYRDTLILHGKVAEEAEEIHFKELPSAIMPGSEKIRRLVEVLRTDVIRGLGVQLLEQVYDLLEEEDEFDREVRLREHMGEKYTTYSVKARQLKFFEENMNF
Method: as §1

[21] = biological target: TNNI3K (Homo sapiens, UniProt Q59H18)
Method: as §1

[22] = biological target: ABL1(F317L)-nonphosphorylated (Homo sapiens, UniProt P00519, F317L)
Method: as §1

[23] = biological target: ANKK1 (Homo sapiens, UniProt Q8NFD2)
Method: as §1

[24] = biological target: VRK2 (Homo sapiens, UniProt Q86Y07)
Chain of VRK2 (Q86Y07 whole entry): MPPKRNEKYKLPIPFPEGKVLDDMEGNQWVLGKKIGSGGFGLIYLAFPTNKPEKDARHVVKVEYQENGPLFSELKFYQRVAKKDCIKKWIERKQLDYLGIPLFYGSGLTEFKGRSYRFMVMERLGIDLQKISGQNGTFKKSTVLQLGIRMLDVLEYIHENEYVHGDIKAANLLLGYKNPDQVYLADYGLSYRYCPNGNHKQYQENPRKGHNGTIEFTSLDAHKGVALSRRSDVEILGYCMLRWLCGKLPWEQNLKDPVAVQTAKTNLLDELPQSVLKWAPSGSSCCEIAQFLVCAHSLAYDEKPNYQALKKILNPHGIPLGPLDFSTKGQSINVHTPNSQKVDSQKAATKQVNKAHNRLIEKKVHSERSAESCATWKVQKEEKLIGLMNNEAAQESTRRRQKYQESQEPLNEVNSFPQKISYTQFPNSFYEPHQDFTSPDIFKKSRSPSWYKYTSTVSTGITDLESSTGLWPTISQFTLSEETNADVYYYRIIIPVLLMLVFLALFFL
Method: as §1

[25] = biological target: MINK (Homo sapiens, UniProt Q8N4C8)
Chain of MINK (Q8N4C8 whole entry): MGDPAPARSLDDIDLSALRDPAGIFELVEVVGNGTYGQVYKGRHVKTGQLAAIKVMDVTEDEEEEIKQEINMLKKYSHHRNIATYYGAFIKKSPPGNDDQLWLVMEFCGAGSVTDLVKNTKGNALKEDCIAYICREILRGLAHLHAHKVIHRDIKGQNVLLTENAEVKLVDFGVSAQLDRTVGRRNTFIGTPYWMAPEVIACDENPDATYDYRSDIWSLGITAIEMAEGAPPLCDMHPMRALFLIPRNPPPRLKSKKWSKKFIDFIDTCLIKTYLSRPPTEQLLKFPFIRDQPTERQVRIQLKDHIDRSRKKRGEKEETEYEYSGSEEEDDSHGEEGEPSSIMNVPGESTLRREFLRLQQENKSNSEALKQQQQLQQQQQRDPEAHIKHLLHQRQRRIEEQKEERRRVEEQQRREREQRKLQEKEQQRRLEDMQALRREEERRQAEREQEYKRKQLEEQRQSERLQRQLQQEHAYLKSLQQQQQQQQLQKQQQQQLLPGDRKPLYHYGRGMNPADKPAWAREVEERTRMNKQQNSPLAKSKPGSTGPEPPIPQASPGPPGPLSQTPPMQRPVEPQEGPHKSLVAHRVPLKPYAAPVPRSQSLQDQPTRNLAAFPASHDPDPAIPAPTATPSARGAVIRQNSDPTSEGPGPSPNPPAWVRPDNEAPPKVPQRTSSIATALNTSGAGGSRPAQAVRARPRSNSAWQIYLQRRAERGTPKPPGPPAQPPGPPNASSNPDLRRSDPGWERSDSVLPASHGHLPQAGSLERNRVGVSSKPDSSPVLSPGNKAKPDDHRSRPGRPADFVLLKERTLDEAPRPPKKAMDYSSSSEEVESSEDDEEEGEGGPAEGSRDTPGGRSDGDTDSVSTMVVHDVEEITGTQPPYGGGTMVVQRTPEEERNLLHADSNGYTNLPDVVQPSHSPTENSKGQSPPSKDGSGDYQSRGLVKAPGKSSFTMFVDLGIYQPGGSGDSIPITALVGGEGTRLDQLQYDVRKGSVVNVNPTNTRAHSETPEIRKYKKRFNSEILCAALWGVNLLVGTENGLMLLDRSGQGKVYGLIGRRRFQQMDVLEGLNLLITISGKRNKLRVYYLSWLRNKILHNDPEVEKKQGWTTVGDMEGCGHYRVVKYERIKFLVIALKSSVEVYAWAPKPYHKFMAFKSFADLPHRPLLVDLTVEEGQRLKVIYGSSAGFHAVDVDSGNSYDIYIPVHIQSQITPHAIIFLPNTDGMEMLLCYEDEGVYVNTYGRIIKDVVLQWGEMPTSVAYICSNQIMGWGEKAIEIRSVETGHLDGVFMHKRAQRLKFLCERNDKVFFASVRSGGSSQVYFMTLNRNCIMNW
Method: as §1

[26] = biological target: RPS6KA4(Kin.Dom.1-N-terminal) (Homo sapiens, UniProt O75676)
Method: as §1

[27] = biological target: PIK3CA(Q546K) (Homo sapiens, UniProt P42336, Q546K)
Method: as §1

[28] = biological target: ERBB4 (Homo sapiens, UniProt Q15303)
Method: as §1

[29] = biological target: JAK1(JH1domain-catalytic) (Homo sapiens, UniProt P23458)
Method: as §1

[30] = biological target: PAK2 (Homo sapiens, UniProt Q13177)
Method: as §1

[31] = biological target: PKMYT1 (Homo sapiens, UniProt Q99640)
Method: as §1

[32] = biological target: LOK (Homo sapiens, UniProt O94804)
Method: as §1

[33] = biological target: BMPR2 (Homo sapiens, UniProt Q13873)
Chain of BMPR2 (Q13873 27-1038): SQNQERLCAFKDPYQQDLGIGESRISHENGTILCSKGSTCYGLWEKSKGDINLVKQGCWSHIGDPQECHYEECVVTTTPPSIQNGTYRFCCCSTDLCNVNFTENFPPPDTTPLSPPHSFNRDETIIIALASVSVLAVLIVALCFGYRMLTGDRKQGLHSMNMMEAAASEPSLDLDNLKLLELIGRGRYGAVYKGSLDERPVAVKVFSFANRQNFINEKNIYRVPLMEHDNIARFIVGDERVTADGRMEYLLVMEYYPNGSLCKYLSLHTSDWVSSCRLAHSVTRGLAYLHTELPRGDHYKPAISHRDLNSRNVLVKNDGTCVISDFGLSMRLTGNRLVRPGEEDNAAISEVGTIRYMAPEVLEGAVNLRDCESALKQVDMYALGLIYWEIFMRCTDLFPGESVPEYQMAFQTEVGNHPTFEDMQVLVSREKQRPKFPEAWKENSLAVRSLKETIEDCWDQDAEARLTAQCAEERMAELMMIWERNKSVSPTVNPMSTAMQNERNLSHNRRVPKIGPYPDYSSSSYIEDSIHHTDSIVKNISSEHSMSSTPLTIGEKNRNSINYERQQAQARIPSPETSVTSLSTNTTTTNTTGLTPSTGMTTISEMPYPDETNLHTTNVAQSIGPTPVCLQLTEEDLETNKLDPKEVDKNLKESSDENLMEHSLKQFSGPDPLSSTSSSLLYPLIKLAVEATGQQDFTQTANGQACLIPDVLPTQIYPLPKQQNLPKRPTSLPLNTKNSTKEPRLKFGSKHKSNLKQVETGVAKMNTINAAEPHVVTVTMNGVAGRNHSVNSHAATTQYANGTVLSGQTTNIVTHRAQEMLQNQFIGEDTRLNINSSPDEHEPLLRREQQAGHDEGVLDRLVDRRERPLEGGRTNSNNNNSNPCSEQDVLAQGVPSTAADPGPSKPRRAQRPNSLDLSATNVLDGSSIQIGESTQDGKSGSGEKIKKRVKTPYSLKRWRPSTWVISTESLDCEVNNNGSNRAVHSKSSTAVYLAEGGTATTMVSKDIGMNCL
Method: as §1

[34] = biological target: ERK8 (Homo sapiens, UniProt Q8TD08)
Method: as §1

[35] = biological target: MARK4 (Homo sapiens, UniProt Q96L34)
Method: as §1

[36] = biological target: JNK3 (Homo sapiens, UniProt P53779)
Chain of JNK3 (P53779 whole entry): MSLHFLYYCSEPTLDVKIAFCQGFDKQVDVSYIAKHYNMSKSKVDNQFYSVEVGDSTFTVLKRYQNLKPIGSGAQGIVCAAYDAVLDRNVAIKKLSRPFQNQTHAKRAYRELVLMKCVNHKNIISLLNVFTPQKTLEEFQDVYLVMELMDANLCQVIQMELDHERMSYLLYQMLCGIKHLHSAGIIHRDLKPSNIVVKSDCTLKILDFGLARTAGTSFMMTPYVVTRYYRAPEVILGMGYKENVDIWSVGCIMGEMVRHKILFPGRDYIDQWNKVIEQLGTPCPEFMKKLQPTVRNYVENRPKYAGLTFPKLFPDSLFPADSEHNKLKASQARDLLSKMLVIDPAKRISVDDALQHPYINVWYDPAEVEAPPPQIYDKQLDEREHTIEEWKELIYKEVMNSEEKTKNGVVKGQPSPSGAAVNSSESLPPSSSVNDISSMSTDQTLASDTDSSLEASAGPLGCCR
Method: as §1

[37] = biological target: QSK (Homo sapiens, UniProt Q9Y2K2)
Method: as §1

[38] = biological target: PIK3CA(M1043I) (Homo sapiens, UniProt P42336, M1043I)
Method: as §1

Chain of AURKB (Q96GD4 whole entry): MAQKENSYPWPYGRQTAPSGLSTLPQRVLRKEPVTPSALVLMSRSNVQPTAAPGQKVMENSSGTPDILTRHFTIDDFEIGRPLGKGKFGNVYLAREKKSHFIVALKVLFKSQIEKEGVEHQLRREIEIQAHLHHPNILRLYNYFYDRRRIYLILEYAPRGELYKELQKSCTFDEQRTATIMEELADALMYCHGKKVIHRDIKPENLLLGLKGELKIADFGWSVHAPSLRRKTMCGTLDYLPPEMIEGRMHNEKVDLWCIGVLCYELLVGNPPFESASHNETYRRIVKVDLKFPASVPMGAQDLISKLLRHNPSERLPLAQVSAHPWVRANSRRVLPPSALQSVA

With `O=C1CCC(N2C(=O)c3cccc(NCCCCCCCCNC(=O)N4CC[C@H](NC5=Nc6cc(F)ccc6N(CC(F)F)c6ccc(Cl)cc65)C4)c3C2=O)C(=O)N1` (stereo partly drawn) [BJG-05-039, (3S)-3-((2-Chloro-5-(2,2-difluoroethyl)-8-fluoro-5H-dibenzo[b,e][1,4]diazepin-11-yl)amino)-N-(8-((2-(2,6-dioxopiperidin-3-yl)-1,3-dioxoisoindolin-4-yl)amino)octyl)pyrrolidine-1-carboxamide] the remaining binding at 10 µM [1] was 82%, the remaining binding at 10 µM [2] was 93% and the remaining binding at 10 µM [3] was 100%. For the same compound, the remaining binding at 10 µM [4] was 57%, the remaining binding at 10 µM [5] was 81% and the remaining binding at 10 µM [6] was 84%. The remaining binding at 10 µM [7] was 76%, the remaining binding at 10 µM [8] was 73% and the remaining binding at 10 µM [9] was 90%. It also gave a remaining binding at 10 µM [10] of 74%, a remaining binding at 10 µM [11] of 83% and a remaining binding at 10 µM [12] of 100%. It also gave a remaining binding at 10 µM [13] of 99%, a remaining binding at 10 µM [14] of 76% and a remaining binding at 10 µM [15] of 87%. The remaining binding at 10 µM [16] was 89%, the remaining binding at 10 µM [17] was 87% and the remaining binding at 10 µM [18] was 59%. The remaining binding at 10 µM [19] was 78%, the remaining binding at 10 µM [20] was 99% and the remaining binding at 10 µM [21] was 82%. The remaining binding at 10 µM [22] was 77%, the remaining binding at 10 µM [23] was 87% and the remaining binding at 10 µM [24] was 94%. The remaining binding at 10 µM [25] was 100%, the remaining binding at 10 µM [26] was 59% and the remaining binding at 10 µM [27] was 100%. It also gave a remaining binding at 10 µM [28] of 97%, a remaining binding at 10 µM [29] of 42% and a remaining binding at 10 µM [30] of 87%. For the same compound, the remaining binding at 10 µM [31] was 54%, the remaining binding at 10 µM [32] was 98% and the remaining binding at 10 µM [33] was 100%. For the same compound, the remaining binding at 10 µM [34] was 63%, the remaining binding at 10 µM [35] was 100% and the remaining binding at 10 µM [36] was 88%. The remaining binding at 10 µM [37] was 78% and the remaining binding at 10 µM [38] was 100%.
